Data published in the NIST ThermoML archive (doi:10.1016/j.jct.2012.04.020).
Where “and” joins values, the source holds several entries; their conditions need not be identical. Equal values may be shown once.

Experiment: mn = molality of the nth substance listed, in mol/kg
Conditions: 101 kPa, Liquid; for speed of sound: Sing-around technique in a fixed-path interferometer; for mass density: Vibrating tube method

NCC(=O)O [2-aminoacetic acid] + O
Conditions | mass density, m1 = 0.04978 [kg/m3] | mass density, m1 = 0.1472 [kg/m3] | mass density, m1 = 0.2507 [kg/m3] | mass density, m1 = 0.3018 [kg/m3] | mass density, m1 = 0.3521 [kg/m3] | speed of sound, m1 = 0.04978 [m/s] | speed of sound, m1 = 0.1472 [m/s] | speed of sound, m1 = 0.2507 [m/s] | speed of sound, m1 = 0.3018 [m/s] | speed of sound, m1 = 0.3521 [m/s]
288.15 K | 1000.74 | 1003.87 | 1007.09 | 1008.62 | 1010.01 | 1484.9 | 1490.1 | 1495.3 | 1497.7 | 1500
298.15 K | 998.674 | 1001.73 | 1004.79 | 1006.26 | 1007.54 | 1499 | 1503.6 | 1508.3 | 1510.3 | 1512.3
308.15 K | 995.639 | 998.704 | 1001.69 | 1003 | 1004.15 | 1521.8 | 1526 | 1530.5 | 1532.4 | 1534.3
318.15 K | 991.801 | 994.854 | 997.838 | 999.157 | 1000.43 | 1538.6 | 1542.8 | 1547 | 1549.3 | 1550.9

C[C@H](N)C(=O)O [(S)-2-aminopropanoic acid] + O
mass density [kg/m3]
Conditions | m1 = 0.05014 | m1 = 0.15 | m1 = 0.2505 | m1 = 0.303 | m1 = 0.3456
288.15 K | 1000.65 | 1003.65 | 1006.52 | 1007.97 | 1009.14
298.15 K | 998.59 | 1001.56 | 1004.42 | 1005.85 | 1006.98
308.15 K | 995.554 | 998.483 | 1001.31 | 1002.74 | 1003.86
318.15 K | 991.648 | 994.399 | 997.067 | 998.365 | 999.359

O=P([O-])([O-])O.[K+].[K+] [dipotassium hydrogen phosphate] + O
Conditions | mass density, 288.15 K | mass density, 298.15 K | mass density, 308.15 K | mass density, 318.15 K | speed of sound, 288.15 K | speed of sound, 298.15 K | speed of sound, 308.15 K | speed of sound, 318.15 K
m1 = 0.2 | 1031.93 kg/m3 and 1029.08 kg/m3 | 1029.32 kg/m3 and 1026.51 kg/m3 | 1025.9 kg/m3 and 1023.13 kg/m3 | 1021.79 kg/m3 and 1018.99 kg/m3 | 1502.7 m/s and 1500 m/s | 1530.6 m/s and 1528.2 m/s | 1551.8 m/s and 1549.3 m/s | 1566.8 m/s and 1564.2 m/s
m1 = 0.4 | 1057.5 kg/m3 and 1061.39 kg/m3 | 1054.52 kg/m3 and 1058.35 kg/m3 | 1054.54 kg/m3 and 1050.82 kg/m3 | 1050.25 kg/m3 and 1046.5 kg/m3 | 1531 m/s and 1535 m/s | 1557 m/s and 1560.8 m/s | 1580.1 m/s and 1576.5 m/s | 1593.7 m/s and 1590.2 m/s
m1 = 0.6 | 1084.12 kg/m3 and 1093.21 kg/m3 | 1080.78 kg/m3 and 1089.76 kg/m3 | 1076.82 kg/m3 and 1085.71 kg/m3 | 1072.29 kg/m3 and 1081.11 kg/m3 | 1560.3 m/s and 1570.8 m/s | 1584.4 m/s and 1594.5 m/s | 1602.3 m/s and 1611.8 m/s | 1614.7 m/s and 1623.6 m/s
m1 = 0.8 | 1113.94 kg/m3 and 1116.48 kg/m3 | 1110.27 kg/m3 and 1112.77 kg/m3 | 1106.04 kg/m3 and 1108.53 kg/m3 | 1101.38 kg/m3 and 1103.81 kg/m3 | 1594.2 m/s and 1597.3 m/s | 1616.3 m/s and 1619.1 m/s | 1632.4 m/s and 1635 m/s | 1643.2 m/s and 1645.5 m/s
